Measured values taken from patent publication US20240209016A1, “FLUORESCENT NUCLEOSIDE PHOSPHATES” (STEALTH LABELS BIOTECH AB, priority 2021, published 2024).
Where “and” joins values, the source holds several entries; their conditions need not be identical. Identical values can stand only once.

What was measured:
Huh-7 cells [1] = test: Cellular uptake and localisation by confocal fluorescence microscopy; assay type: cell-based, human; details: 2.5 μM
Text: Confocal Laser Scanning Fluorescence Microscopy: Images were captured using a Nikon eclipse Ti microscope with a Nikon C2plus scanner, two parallel Gallium arsenide phosphide (GaAsP) detectors, and an Apo 60x Oil μS DIC N2 objective. To excite the fluorescent nucleoside triphosphates the 405 nm laser line was used, and the emission was collected between 407-607 nm. To optimize the signal while avoiding photobleaching of the compounds a laser power of 2% and a detector gain of 4% was applied. For live cell imaging, Huh-7 cells were seeded in a four-compartment dish (CELLview Dishes, Greiner Bio-One) with glass bottom as described above. During imaging the dish was placed in a stage top incubation chamber (OKO lab) maintaining 37° C. and 5% CO2.
Time-lapse Imaging: To image the uptake of compounds 7 and 17 over time, the time-lapse setup of the NIS software was used. […]
Results: To explore the cellular uptake of compounds 7 and 17, they were added to Huh-7 cells in CCM and the uptake was monitored as function of time using a confocal fluorescence microscope (FIG. 4). Control cells, exposed to CCM alone, were imaged using the same microscopy settings and recorded as reference to probe for cellular autofluorescence levels. […]

[2] = Photophysical characterisation (absorption and emission spectra in DPBS); assay type: physicochemical; details: room temperature; for ε405, FBA χ ΦF: at 405 nm; for λem, max / ΦF: excitation 355 nm; for ΦF: relative to quinine sulphate
Protocol: Absorption spectra were recorded on a Cary 4000 spectrometer (Agilent Technologies). The emission spectra were measured on a SPEX Fluorolog 3 spectrofluorimeter (Jobin Yvon Horiba). Three consecutive emission spectra recorded at a scan rate of 600 nm min−1 were collected and averaged. The spectra of compounds 7 and 17 in DPBS were recorded from 360 nm to 695 nm with excitation at 355 nm. To avoid bleaching, the monochromator slits on the excitation side were set to 0.8 nm, and on the emission side to 2.5 nm.
The spectra of molar absorptivities (ε in M^−1cm^−1) were calculated using Equation 1, with A being the measured absorption, A260 and ε260 the absorption or molar absorptivity, respectively, at 260 nm.
The fluorescence quantum yields were determined relative to the quantum yield of quinine sulphate in 0.5 M H2SO4 (ϕF=0.546^42, referred to as reference), and calculated using Equation 2, in which subscripts s and r refer to sample and reference, respectively. I is the integrated fluorescence intensity, A the measured absorption of the fluorophore at the excitation wavelength and n is the refractive index of the solvent (H2O or H2SO4, respectively; Eaton D. F.; Pure Appl. Chem. 60, 1107-1114 [1988 ]).
The spectroscopic properties of compounds 7 and 17 were determined under physiological conditions in order to determine the experimental setup for cell studies, with absorption and emission spectra being recorded in DPBS to mimic the ionic strength and salt composition in mammalian cells. To record emission spectra, the excitation wavelength was set to 355 nm, and measurements were performed at room temperature (ca. 22° C.). Molar absorptivities (s) were then calculated using the Beer-Lambert law.

Huh-7 cells [3] = test: Uptake kinetics monitored by flow cytometry; assay type: cell-based, human; details: 2.5 μM; for exposure time at which uptake reaches plateau / saturation: 5 min to 4 h exposure
Protocol: For flow cytometry experiments, cells were seeded in a 48-well plate as described above. For kinetics experiments of the uptake, solutions of 2.5 μM of compounds 7 or 17 in CCM were added. Control samples were CCM, containing an equal volume of DPBS instead of FBA-TP. All treatments were done in triplicate. The experiment was setup such that all samples could be harvested at the same time at the end of the experiment. The FBA-TP solutions where therefore added at different time points. At the end of the experiment, the cells were washed twice with DPBS, and thereafter harvested by addition of 0.25% trypsin-EDTA. The trypsin was neutralized by adding DPBS with 2% added FBS and samples were transferred to a 96 U-bottom well plate for high throughput readout.
Measurements were generally performed on a BD LSRFortessa flow cytometer with an BD High Throughput Sampler (HTS). The system was connected to the software BD FACSDiva. Samples were excited using a 405 nm laser and emission passed through a bandpass filter centred at 450 nm (±20 nm). Uptake kinetics experiments were repeated twice. For monophosphate compounds, a Luminex CellStream flow cytometer with a high throughput sampler (HTS) connected to the CellStream Acquisition software was used. Excitation wavelength was 405 nm, with the emission passing through a 456/51 nm bandpass filter.

Huh-7 cells [4] = test: alamarBlue cell viability (metabolic activity) assay; assay type: cell-based; details: lower doses, 24 h exposure
Protocol: The Huh-7 human liver cell line was used.
After 24 h exposure with compounds 7 or 17, the conditioned medium was removed from the cells and used for the LDH leakage assay (see below). Freshly prepared alamarBlue cell viability reagent (Invitrogen, diluted 1:10 in CCM) was added, followed by incubation for 3 h at 37° C. and 5% CO2. The resulting resorufin fluorescence was read using an Optima Fluostar plate reader (BMG Labtech) Ex: 544 nm/Em: 590 nm. Dimethyl sulfoxide 5% and CCM alone (i.e. compounds 7 and 17 0 μM) were used as positive and negative controls for cell death, respectively.

Huh-7 cells [5] = test: Lactate dehydrogenase (LDH) leakage assay (cell membrane integrity); details: all exposure conditions, 24 h; in parity with untreated control cells
Protocol: The Huh-7 human liver cell line was used. […] For sub-cultivation the adherent cells were washed twice with DPBS, containing no calcium or magnesium, and detached with 0.25% trypsin ethylenediaminetetraacetic acid 1x (trypsin-EDTA, Gibco, with phenol red). For seeding, the cells were counted after trypsin neutralization, diluted to the desired number of cells (Table 2) and thereafter incubated at 37° C. with 5% CO2 for 24 h before experiments.
Prior to treatment, the conditioned medium was removed from the Huh-7 cells, and the compounds (stock solution in DPBS diluted in CCM) were added to the cells for different exposure times. Unexposed cells were treated the same way, with the same amount of added DPBS to CCM, instead of the compounds. Two different cytotoxicity assays (alamarBlue to measure metabolic activity and LDH leakage to measure cell membrane integrity) were performed in parallel using the cells and the culture medium from each sample, respectively. Treatments were done in triplicates and the experiment was repeated twice.
Lactate Dehydrogenase (LDH) Leakage Assay: To test for released LDH, the CyQUANT LDH Cytotoxicity Assay kit (Invitrogen) was used. […] Maximum LDH release were determined by treating cells with a 1:10 dilution of lysis buffer in serum free medium for 30 min at 37° C. and 5% CO2.

Substance: ((2R,3S,4R,5R)-5-(2,3,5,6-tetraazacyclopenta[de]tetracen-2(6H)-yl)-3,4-dihydroxytetrahydrofuran-2-yl)methyl hydrogen triphosphate [pATP]
- intracellular fluorescence following 20 h exposure (Huh-7 cells [1]): strong intracellular fluorescence
- absorption band peaks [2]: 370 nm and 386 nm
- εmax, FBA χ ΦF [2]: 6000 M⁻¹ cm⁻¹
- λabs, max [2]: 386 nm
- ε405, FBA χ ΦF [2]: 909 M⁻¹ cm⁻¹
- λem, max [2]: 420 nm
- ΦF [2]: 49%
- lag phase of uptake (Huh-7 cells [3]): 15 min
- increase in cellular fluorescence over time (comparison) (Huh-7 cells [3]; 5 min to 4 h): significantly slower
- exposure time at which uptake reaches plateau / saturation (Huh-7 cells [3]): > 4 h

Substance: ((2R,3S,4R,5R)-5-(8-cyano-2,3,5,6-tetraazaaceanthrylen-2(6H)-yl)-3,4-dihydroxytetrahydrofuran-2-yl)methyl hydrogen triphosphate [2CNqATP]
- comparison of cell viability at lower doses (Huh-7 cells [4]): slightly more toxic than pATP
- intracellular fluorescence following 20 h exposure (Huh-7 cells [1]): strong intracellular fluorescence
- εmax, FBA χ ΦF [2]: 4900 M⁻¹ cm⁻¹
- λabs, max [2]: 352 nm
- ε405, FBA χ ΦF [2]: 504 M⁻¹ cm⁻¹
- λem, max [2]: 463 nm
- ΦF [2]: 47%
- exposure time at which fluorescence is significantly over the initial (t=0) level (Huh-7 cells [3]): 5 min
- exposure time at which uptake reaches plateau / saturation (Huh-7 cells [3]): 2 h
- level of released LDH (Huh-7 cells [5]): about 10%
